Measurements published in US6455546B2, “Method for promoting ovulation, parturition, and lactation in mammals” (Clemson University, priority 1996, dated 2002).
Where “and” joins values, the source holds several entries; their conditions need not be identical. Equal entries are not always repeated. Entries after “also recorded” stand apart in the source; their conditions may differ.

What was measured:
animals = animals exposed to other D2 receptor antagonists; cited from earlier work
mares = test: Stimulation of follicular growth and ovulation in mares out of season
agalactic mares = test: Preparation for parturition, udder development and lactation in agalactic mares; format: in vivo;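 also: treated mares were free of fescue toxicosis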
quarter horse mares = test: Daily feed intake of mares; format: in vivo
Text: Ten quarter horse mares were housed in individual pens and fed a standard feed concentrate weighing 0.5% of each mares' initial body weight at approximately 8:00 A.M. each day during the study. In addition, hay was fed to the mare ad libitum each day. During the night, the mares were placed in a dry lot having no access to food.

[1] = individual mares, domperidone .55 mg/kg orally daily in molasses, January and February
[2] = individual agalactic mares, 1.1 mg/kg per day orally, 1.1 mg/kg/day

Row | Compound | Neuroleptic side effects (animals) | Mares treated that ovulated (mares; 0.55 mg/kg orally daily, only two of nine control mares ovulated) | Date of Ovulation (mares; [1]) | No. of Days of Treatment Before Ovulation (mares; [1]) | Neurological side effects (mares; mares, 0.55 mg/kg orally daily, during the study) | Milk production (agalactic mares; horses, orally about 0.2 mg/kg to about 3.3 mg/kg of body weight) | Did Mare Have A Live Foal? (agalactic mares; individual agalactic mares, 1.1 mg/kg per day orally) | Days Before (−) or After Expected Foaling that Mare Foaled (agalactic mares; [2]) | Mare's Udder Development After Treatment Began (agalactic mares; [2]) | Was Mare Lactating Normally After Foaling? (agalactic mares; [2]) | Adverse side effects (agalactic mares; subcutaneous, amounts greater than 1.32 mg/kg) | Daily hay consumption after treatment began (quarter horse mares; each of the ten mares, 1.1 mg/kg orally daily) | Avg. Hay Consumption After Treatment (quarter horse mares; individual mares, 1.1 mg/kg orally daily for two weeks, hay ad libitum, 1.1 mg/kg)
1 | CCN1CCCC1CNC(=O)c1cc(S(N)(=O)=O)ccc1OC (centres unmarked) [sulpiride] | neuroleptic side effects have been observed |  |  |  |  |  |  |  |  |  |  |  | 
2 | CCN(CC)CCNC(=O)c1cc(Cl)c(N)cc1OC [metoclopramide] | neuroleptic side effects have been observed |  |  |  |  |  |  |  |  |  |  |  | 
3 | O=c1[nH]c2ccccc2n1CCCN1CCC(n2c(=O)[nH]c3cc(Cl)ccc32)CC1 [domperidone] |  | nine of the ten | Feb. 9; also recorded: Feb. 6; also recorded: Feb. 12; also recorded: Feb. 8; also recorded: Feb. 15; also recorded: Feb. 5; also recorded: Feb. 7; also recorded: Feb. 13; also recorded: d/n ovulate; also recorded: Feb. 10 | 18 Days (2×) and 21 Days and 17 Days and 24 Days and 14 Days and 16 Days and 22 Days and d/n ovulate and 19 Days | No neurological side effects were observed | stimulated | Yes | −1 Days and +8 Days and +15 Days and +14 Days and 0 Days and −3 Days (2×) and +3 Days and −2 Days and +12 Days | Increased Weekly; also recorded: Developed Adequately; also recorded: Very Slight; also recorded: Gradual Development; also recorded: Normal Development; also recorded: No Response; also recorded: Immediate; also recorded: Dripping Milk 5th Day | Yes (11×) and No. but drug | without any adverse side effects | increased | 13.0 lbs and 12.2 lbs and 14.1 lbs (2×) and 13.2 lbs and 14.2 lbs and 12.3 lbs and 13.5 lbs and 15.0 lbs and 12.1 lbs
